# Measured values published in US11066455B2, “Tmem100 peptides and variants thereof and their use in treating or preventing diseases or conditions” (The Johns Hopkins University, priority 2014, dated 2021).
# * marks the point of attachment. Myristoyl = CCCCCCCCCCCCCC(=O)*
# Tests used:
# [1] = system: CFA-induced hyperalgesia in mice; experiment: CFA injection: mechanical (von Frey) and thermal (Hargreaves) hyperalgesia; assay type: in vivo, mouse; details: peptide 5 μl of 2 mM; 3 hours after treatment
# Method: Mice were placed in a transparent plastic box (4.5×5×10 cm) on a metal mesh and acclimatized for 30 minutes prior to testing. Each mouse was tested more than 5 times at a specific force manually, and the threshold was determined by the lowest force needed to elicit responses more than 50% of the time.
# Mice were placed under a transparent plastic box (4.5×5×10 cm) on a glass platform (Plantar Test Apparatus, IITC Life Science). Radiant heat was adjusted to 18% of maximal output and shone on the center of the paws. Each mouse was tested more than 3 times, with each test performed 20 minutes apart.
# Mice were injected with 6 μL of 50% emulsified Complete Freund's Adjuvant (Sigma, F5881) in normal saline.
# The sequence from the last 28 amino acids of the C-terminus of the Tmem100-3Q mutant protein was synthesized and myristoylated at its N-terminus (myr-[…]-COOH) (SEQ ID NO: 8) by Twentyfirst Century Biochemicals. […] For the calcium imaging assay, the peptides were added to the calcium imaging buffer with a final concentration of 200 nM and incubated for at least […] at room temperature. For the mice behavioral assays, the peptides (5 μL, 2 mM) were injected subcutaneously in the hindpaw at least 30 minutes before testing. For the rat behavior assays, human T100-3Q (h-T100), a palmitoylated cell permeable peptide mutated based on the C terminus of human sequence in Tmem100, was applied. […]
# TRPV1 = target: T1, TRPV1 (Mus musculus, UniProt Q704Y3); experiment: Calcium imaging of DRG neurons, response to capsaicin (CAP); assay type: cell-based; details: peptide 200 nM pretreatment; 100 nM CAP; IB4-negative DRG neurons
# T1 construct: calcium imaging data from the T100-Mut-treated (200 nM) DRG neurons; endogenous in cells; host or cells: primary mouse DRG neurons
# T1 sequence (Q704Y3 whole entry): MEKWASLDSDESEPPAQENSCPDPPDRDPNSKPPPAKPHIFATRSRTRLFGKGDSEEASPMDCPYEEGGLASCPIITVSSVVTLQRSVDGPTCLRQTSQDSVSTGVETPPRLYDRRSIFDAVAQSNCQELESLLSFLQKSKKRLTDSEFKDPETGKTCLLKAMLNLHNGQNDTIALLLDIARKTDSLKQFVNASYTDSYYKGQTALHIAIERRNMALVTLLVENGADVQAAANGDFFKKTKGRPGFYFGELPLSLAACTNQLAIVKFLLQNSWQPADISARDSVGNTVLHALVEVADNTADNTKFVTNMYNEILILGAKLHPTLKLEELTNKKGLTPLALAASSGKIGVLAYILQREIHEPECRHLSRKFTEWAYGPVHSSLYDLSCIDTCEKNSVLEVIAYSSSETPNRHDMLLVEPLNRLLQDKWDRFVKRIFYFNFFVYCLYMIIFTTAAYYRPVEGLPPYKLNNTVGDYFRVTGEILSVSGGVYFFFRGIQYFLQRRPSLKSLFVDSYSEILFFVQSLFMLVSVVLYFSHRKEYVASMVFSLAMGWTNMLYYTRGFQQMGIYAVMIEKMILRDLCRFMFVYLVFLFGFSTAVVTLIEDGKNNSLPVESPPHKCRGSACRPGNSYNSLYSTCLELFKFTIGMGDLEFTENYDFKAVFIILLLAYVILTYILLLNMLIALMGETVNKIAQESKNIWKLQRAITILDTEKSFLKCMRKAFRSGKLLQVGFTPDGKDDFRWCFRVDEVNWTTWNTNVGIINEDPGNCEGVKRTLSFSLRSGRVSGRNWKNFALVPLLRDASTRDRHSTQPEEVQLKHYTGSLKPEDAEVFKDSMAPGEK
# Method: Calcium imaging assays were performed as previously described (Liu et al., 2009). Cells were loaded with 2 μM fura 2-acetomethoxy ester (Molecular Probes) for 30 min in the dark at room temperature or for 45 minutes at 37° C. for DRG and cell lines, respectively. After washing, cells were imaged at 340 and 380 nm excitation to detect intracellular free calcium under a fluorescent microscope (Nikon Eclipse TE2000-S) and Lambda 10B shutter (Sutter Instrument). The cells were bathed in calcium imaging buffer (pH 7.45, 130 mM NaCl, 3 mM KCl, 2.5 mM CaCl2, 10 mM HEPES, 10 mM glucose, 1.2 mM NaHCO3, with sucrose to increase osmolarity to 290 mOsm). […] Images were processed and analyzed with NIS-Elements BR 2.30 software (Nikon). […] The data was analyzed with the experimenter blinded to the genotypes or constructs transfected.
# DRG from 3 to 4-week old mice were collected in cold DH10 medium (90% DMEM/F-12, 10% FBS, 100 U/ml penicillin, and 100 μg/ml Streptomycin, Gibco) and treated with enzyme solution in HBSS containing collagenase (1.65 mg/mL, Worthington CLS I) and dispase (3.55 mg/mL, GIBCO 17105-041) at 37° C. for 30 minutes. […] This efficiency was determined by mCherry(+) divided by total number of cells in the bright fields. […]
substance,measurement,setting,value
myr-QRVLEQVLQNWSRRANVKQAQKFQVKCT-COOH (Myristoyl-QRVLEQVLQNWSRRANVKQAQKFQVKCT-OH; SMILES CCCCCCCCCCCCCC(=O)N[C@@H](CCC(N)=O)C(=O)N[C@@H](CCCNC(=N)N)C(=O)N[C@H](C(=O)N[C@@H](CC(C)C)C(=O)N[C@@H](CCC(=O)O)C(=O)N[C@@H](CCC(N)=O)C(=O)N[C@H](C(=O)N[C@@H](CC(C)C)C(=O)N[C@@H](CCC(N)=O)C(=O)N[C@@H](CC(N)=O)C(=O)N[C@@H](Cc1c[nH]c2ccccc12)C(=O)N[C@@H](CO)C(=O)N[C@@H](CCCNC(=N)N)C(=O)N[C@@H](CCCNC(=N)N)C(=O)N[C@@H](C)C(=O)N[C@@H](CC(N)=O)C(=O)N[C@H](C(=O)N[C@@H](CCCCN)C(=O)N[C@@H](CCC(N)=O)C(=O)N[C@@H](C)C(=O)N[C@@H](CCC(N)=O)C(=O)N[C@@H](CCCCN)C(=O)N[C@@H](Cc1ccccc1)C(=O)N[C@@H](CCC(N)=O)C(=O)N[C@H](C(=O)N[C@@H](CCCCN)C(=O)N[C@@H](CS)C(=O)N[C@H](C(=O)O)[C@@H](C)O)C(C)C)C(C)C)C(C)C)C(C)C) [scrambled],CFA-induced mechanical hyperalgesia (mechanical threshold),[1],0.05 ± 0.0 g
same,CFA-induced thermal hyperalgesia (latency),[1],3.9 ± 0.6 s
same,percentage of DRG neurons responding to CAP,TRPV1,16±1.3%
